Assay results reported in patent US20130142784A1 (The Board of Trustees of the University of Illinois, priority 2010, published 2013).
Values belong to the compound of their own block, whether it stands above or below them. Ends that are not written are not given here.

Columns and labels:
GATA-3 promoter [1] = assay: ChIP assay, Rb binding; format: cell-based, human; conditions: compared with control siRNA
Protocol: (§1) The mouse GATA-3 promoter contains three FoxM1 consensus sequences within 2 kb of the transcriptional start site. Whether FoxM1 directly regulated GATA-3 at the RNA level was investigated using chromatin immunoprecipitation (ChIP) assay. Cells were fixed in 1% formaldehyde for 10 minutes to allow crosslinking and then quenched with […] glycine. For in vivo ChIP assays, single cell suspensions were generated using collagenase/hyaluronidase followed by fixing. Cells were collected and lysed in SDS lysis buffer (1% SDS, 10 mM EDTA, 50 mM Tris pH 8, protease and phosphatase inhibitors). Lysate was sonicated, pre-cleared, and incubated with antibodies against GFP (Clontech, JL-8), GATA-3 (Santa Cruz HG3-31), FoxM1 (Major et al., 2004, “Forkhead box M1B transcriptional activity requires binding of Cdk-cyclin complexes for phosphorylation-dependent recruitment of p300/CBP coactivators” Mol Cell Biol 24: 2649-61), DNMT3b (Imgenex 52A1018), or Rb (Cell Signaling, 4H1) followed by purification with Protein-A and Protein-G Sepharose beads in the presence of salmon sperm DNA (Upstate). Beads were washed and DNA extracted using a PCR purification kit (Qiagen). PCR products were visualized by gel electrophoresis or analyzed using SYBR Green (Bio-Rad), normalized to the IgG control (Santa Cruz Biotechnology).

GATA-3 promoter [2] = assay: ChIP assay, DNMT3b binding; format: cell-based, human; conditions: compared with control siRNA
Protocol: as §1
DNMT3b has been specifically implicated in mammary tumor biology. […]

SKBR3 resistant cells [3] = assay: cell number after FoxM1 siRNA knockdown and HERCEPTIN; format: cell-based, human; conditions: in conjunction with HERCEPTIN
Protocol: The source of resistance in these lines was not uniform, as an increase in phosphorylated Akt was only observed in SKBR3 cells. FoxM1 levels in parental and resistant lines were assayed by western blot analysis. Extracts were prepared in lysis buffer containing 1 mM EDTA, 0.15M NaCl, 0.05M Tris-HCl pH 7.5, and 0.5% Triton-X. Phosphatate Inhibitor Cocktail Set II (Calbiochem) and protease inhibitor (Roche) were added before each experiment using the rabbit polyclonal antibody referenced above. Quantification was performed using Image J software (NIH).
Additionally, levels of cell cycle regulators, Polo-like Kinase 1 (1.5-fold) and Cyclin B1 (16.6-fold) were amplified in the resistant line as compared to the parental control line (FIG. 3B). GAPDH is used as a loading control to ensure that the same amount of RNA was added to each reaction. All bands are normalized to GAPDH bands from the same sample and then normalized values from parental and resistant cells can be compared. […] The control (5′ […] 3′, SEQ ID NO:12) and FoxM1 targeting siRNA (5′ […] 3′, SEQ ID NO:9) were both from Dharmacon, and purified using standard desalting methods. Prior to transfection, plates are washed and cells are placed in serum-free media. siRNA was added to a final concentration of 7.5 pm to each plate using Lipofectamine 2000 (Invitrogen) transfection. […]

[4] = tested on: hepatocellular carcinoma cells; conditions: mouse; cited from earlier work
[5] = tested on: MDA-MB-453 resistant cells; assay: colony forming assay, ARF-derived peptide and trastuzumab; format: cell-based, human; conditions: with trastuzumab; peptide 2 μM
Protocol: (§2) FIGS. 6A and 6B are graphs showing quantitative colony forming assay of parental or resistant SKBR3 and MDA-MB-453 cells treated with either ARF-peptide or mutant peptide (2 μM). […] Also shown below the graphs are images of representative wells of cells from such colony-forming assays.
(§3) The cells were maintained in HERCEPTIN thereafter. […] Quantification was done using Adobe Photoshop.
(§4) Studies have shown that FoxM1 is inhibited by a small peptide that contains a 19-amino acid region of the p19ARF protein (residues 26 to 44) (SEQ ID NO:2). […] Treatment with the ARF-derived peptide and trastuzumab led to a 90% reduction in cell numbers in both SKBR3 and MDA-MB-453 resistant cells as measured by colony forming assays (following the same protocol as described above in Example 5) (FIG. 6A).

SKBR3 resistant cells [6] = assay: as above; format: cell-based, human; conditions: with trastuzumab; peptide 2 μM
Protocol: as §2, §3, §4

[7] = tested on: SKBR3-pBabe and FoxM1 cells; assay: surviving cells after ARF-peptide added to HERCEPTIN, paclitaxel or combination; format: cell-based, human
Protocol: as §2
The ability of the ARF-peptide to sensitize FoxM1-expressing cells to treatment was also investigated.

SKBR3 cells = assay: cell viability, CellTiter-Glo Luminescent assay, paclitaxel; format: cell-based, human; conditions: for IC50: Homo sapiens, TAXOL 24 hours; for cells survived: 0.1 μM, seven days
Protocol: After seven days of treatment in a low dose of paclitaxel (TAXOL) (0.1 μM), only 25% of SKBR3-pBabe cells survived, while nearly 50% of SKBR3-FoxM1 cells survived (FIG. 4A).

[8] = tested on: cells with HER2/ErbB2 amplification; conditions: on average; cited from earlier work
[9] = tested on: polymerized and soluble tubulin fractions of SKBR3-pBabe and SKBR3-FoxM1 expressing lines; assay: polymerized vs soluble tubulin fractionation and western blot; format: cell-based, human
Protocol: In addition, the possibility that FoxM1 induced altered microtubule dynamics was investigated. Paclitaxel has been known to stabilize tubulin, and thus the ratio of polymerized to soluble microtubule fractions was compared. Cell lysates of SKBR3-pBabe and SKBR3-FoxM1 expressing lines untreated or treated with paclitaxel were fractionated to obtain polymerized and soluble tubulin fractions. […] Briefly, cells were seeded at 80% confluency in 24-well plates, collected in hypotonic buffer (1 mM MgCl2, 2 mM EGTA, 0.5% Nonidet P-40, 20 mM Tris-HCl pH 6.8) and centrifuged for 10 minutes at room temperature (14,000 rpm). The supernatant was used as the soluble fraction while the pellet was used as the polymerized fraction.

[10] = FoxM1-expressing cells, with HERCEPTIN and paclitaxel combination treatment

Compound: 5′ GGACCACUUUCCCUACUUUUU 3′ (listed as RNA, chemistry not given here) [FoxM1 targeting siRNA]
Rb binding to GATA-3 promoter (GATA-3 promoter [1]): could not bind to the GATA-3 promoter | DNMT3b binding to GATA-3 promoter at −747 and −1431 (GATA-3 promoter [2]): significantly decreased | reduction in cell number (SKBR3 resistant cells [3]): more than 75%

Compound: ARF-derived peptide: cell-penetrating peptide inhibitor of FoxM1 containing a 19-amino acid region of the p19ARF protein (residues 26 to 44) (KFVRSRRPRTASCALAFVN; not fully specified; UniProt Q64364 26-44, looked up, fragment)
proliferation and apoptosis of hepatocellular carcinoma cells in vivo [4]: reduce proliferation and induce apoptosis | reduction in cell numbers [5]: 90% | reduction in cell numbers (SKBR3 resistant cells [6]): 90% | cell killing [7, 10]: more than 97% | cells surviving [7, 10]: less than 3% | cell number compared to mutant peptide ([7]; added to HERCEPTIN, paclitaxel, or combination treatment, three days): dramatic reduction in cell number | cell killing at the same dosage compared to mutant peptide ([7]; pBabe cells, all treatments): greater cell killing

IC50 (SKBR3 cells; SK-BR-3, SKBR3 cells transfected with FoxM1-specific siRNA 72 hours): 10 nM | IC50 (SKBR3 cells; SK-BR-3, SKBR3 cells transfected with control siRNA 72 hours): 60 nM
Compound: CC(=O)O[C@H]1C(=O)[C@@]2(C)[C@H]([C@H](OC(=O)c3ccccc3)[C@]3(O)C[C@H](OC(=O)[C@H](O)[C@@H](NC(=O)c4ccccc4)c4ccccc4)C(C)=C1C3(C)C)[C@]1(OC(C)=O)CO[C@@H]1C[C@@H]2O [paclitaxel]
cells survived (SKBR3 cells; SKBR3-FoxM1 cells): ~50% | cells survived (SKBR3 cells; SKBR3-pBabe cells): 25% | higher dose required to produce the same effect [8]: 100 fold | ratio for β-tubulin ([9]; FoxM1-expressing cells after paclitaxel treatment): did not show a significant change | α- and β-tubulin distribution ([9]; SKBR3-pBabe cells after paclitaxel treatment): dramatic shift towards the polymerized fraction
